Assays:
BsuCA1 (BsCA1) = format: biochemical, Brucella suis; details: read-out: KI (nM) ^* / BsuCA1^b
BsuCA2 (BsCA2) = format: biochemical, Brucella suis; details: read-out: KI (nM) ^* / BsuCA2^b

| Compound | Ki (BsuCA1 (BsCA1)) [nM] | Ki (BsuCA2 (BsCA2)) [nM] |
| --- | --- | --- |
| CCOC(=O)CCc1c(C)nn(-c2ccncc2S(N)(=O)=O)c1C [compound 16, 16] | 41 | 706 |
| NS(=O)(=O)c1cnccc1N1CCN(Cc2ccc3c(c2)OCO3)CC1 [compound 11, 11] | 36 | 336 |
| CCCCc1c(C)nn(-c2ccncc2S(N)(=O)=O)c1C [compound 15, 15] | 47 | – |
| Cc1nn(-c2ccncc2S(N)(=O)=O)c(C)c1C [compound 14, 14] | 45 | – |
| NS(=O)(=O)c1cnccc1N1CCN(Cc2ccccc2)CC1 [compound 10, 10] | 34 | 97 |
| CCc1cc(CC)n(-c2ccncc2S(N)(=O)=O)n1 [compound 17, 17] | – | 420 |
| NS(=O)(=O)c1cnccc1N1CCC(Cc2ccccc2)CC1 [compound 12, 12] | 40 | – |
| Cc1cc(C)n(-c2ccncc2S(N)(=O)=O)n1 [compound 13, 13] | 38 | 780 |
